Data reported in patent US11434242B2, “Dopamine-b-hydroxylase inhibitors” (BIAL-PORTELA & Cª, S.A., priority 2017, dated 2022).

Biological target: T1, Dopamine beta hydroxylase (Homo sapiens, UniProt P09172)
T1 construct: 125 μl of plasma; tissue Instituto Português do Sangue Transplantação; host or cells: human plasma from healthy donors
T1 sequence (P09172 40-617 limits assumed): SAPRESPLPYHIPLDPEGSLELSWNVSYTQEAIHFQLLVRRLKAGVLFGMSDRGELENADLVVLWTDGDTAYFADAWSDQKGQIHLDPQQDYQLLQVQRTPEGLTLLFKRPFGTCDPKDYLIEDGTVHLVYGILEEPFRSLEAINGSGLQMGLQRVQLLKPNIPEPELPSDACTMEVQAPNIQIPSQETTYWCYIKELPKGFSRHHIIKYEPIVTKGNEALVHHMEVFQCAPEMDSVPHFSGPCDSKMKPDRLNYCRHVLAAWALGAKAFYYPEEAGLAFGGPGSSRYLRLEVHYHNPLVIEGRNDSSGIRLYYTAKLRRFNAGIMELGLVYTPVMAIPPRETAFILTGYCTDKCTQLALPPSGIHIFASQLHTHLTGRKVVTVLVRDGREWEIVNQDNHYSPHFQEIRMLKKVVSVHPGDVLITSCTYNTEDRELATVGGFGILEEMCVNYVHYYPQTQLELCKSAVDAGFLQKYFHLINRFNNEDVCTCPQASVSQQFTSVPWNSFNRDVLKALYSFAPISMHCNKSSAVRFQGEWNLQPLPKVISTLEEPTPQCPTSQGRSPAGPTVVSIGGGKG
Test: Dopamine beta hydroxylase activity in human plasma
Type: biochemical
Details: for Plasma (0.01 μM), activity in % of control: inhibitor 0.01 μM; for Plasma (0.1 μM), activity in % of control: inhibitor 0.1 μM; for Plasma (1 μM), activity in % of control: inhibitor 1 μM
Summary of the method: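 Healthy-donor human plasma pre-incubated 10 min at 37° C with compound at final 10, 100 or 1000 nM in pH 5.0 acetate buffer with ascorbate, fumarate, pargyline, N-ethylmaleimide, catalase and copper sulfate. Tyramine substrate then added for 45 min; octopamine formed was isolated by SCX cartridge, periodate-converted and read at 330 nm; activity given as % control.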

SMILES	Plasma (0.01 μM), activity in % of control	Plasma (0.1 μM), activity in % of control	Plasma (1 μM), activity in % of control
CS(=O)(=O)NC(=O)Cc1[nH]c(=S)n2c1C[C@H](c1cc(F)ccc1F)C2 [Example 24, (R)-2-(6-(2,5-difluorophenyl)-3-thioxo-2,5,6,7-tetrahydro-3H-pyrrolo[1,2-c]imidazol-1-yl)-N-(methylsulfonyl)acetamide]	–	100.2 % of control	45.6 % of control
Cn1c(CC(=O)N2CCC[C@H]2CO)c2n(c1=S)C[C@H](c1c(F)ccc(Br)c1F)C2 [Example 241, 2-((S)-6-(3-bromo-2,6-difluorophenyl)-2-methyl-3-thioxo-2,5,6,7-tetrahydro-3H-pyrrolo[1,2-c]imidazol-1-yl)-1-((S)-2-(hydroxymethyl)pyrrolidin-1-yl)ethan-1-one]	51.7 % of control	8.9 % of control	–
O=C(Cc1[nH]c(=S)n2c1C[C@H](c1c(F)cccc1F)C2)N[C@@H]1CCOC1 [Example 77, 2-((R)-6-(2,6-difluorophenyl)-3-thioxo-2,5,6,7-tetrahydro-3H-pyrrolo[1,2-c]imidazol-1-yl)-N—((R)-tetrahydrofuran-3-yl)acetamide]	–	87.2 % of control	38.9 % of control
O=C(Cc1[nH]c(=S)n2c1C[C@H](c1c(F)ccc(Br)c1F)C2)N[C@@H]1CCCC[C@H]1O [Example 160, 2-((R)-6-(3-bromo-2,6-difluorophenyl)-3-thioxo-2,5,6,7-tetrahydro-3H-pyrrolo[1,2-c]imidazol-1-yl)-N-((1R,2R)-2-hydroxycyclohexyl)acetamide]	84.7 % of control	50.8 % of control	–
CCOC(=O)Cc1[nH]c(=S)n2c1C[C@H](c1cc(F)ccc1F)C2 [Example 61, Ethyl (R)-2-(6-(2,5-difluorophenyl)-3-thioxo-2,5,6,7-tetrahydro-3H-pyrrolo[1,2-c]imidazol-1-yl)acetate]	–	99.1 % of control	47.9 % of control
Cn1c(CC(=O)NC2CCS(=O)(=O)CC2)c2n(c1=S)C[C@@H](c1c(F)ccc(F)c1F)C2 [Example 239, (R)—N-(1,1-dioxidotetrahydro-2H-thiopyran-4-yl)-2-(2-methyl-3-thioxo-6-(2,3,6-trifluorophenyl)-2,5,6,7-tetrahydro-3H-pyrrolo[1,2-c]imidazol-1-yl)acetamide]	60.1 % of control	3.9 % of control	–
CS(=O)(=O)NC(=O)Cc1[nH]c(=S)n2c1C[C@@H](c1cc(Br)ccc1F)C2 [Example 21, (S)-2-(6-(5-bromo-2-fluorophenyl)-3-thioxo-2,5,6,7-tetrahydro-3H-pyrrolo[1,2-c]imidazol-1-yl)-N-(methylsulfonyl)acetamide]	–	69.2 % of control	16.7 % of control
Fc1ccc(Br)c(F)c1[C@H]1Cc2c(CCc3cccnc3)[nH]c(=S)n2C1 [Example 214, (R)-6-(3-bromo-2,6-difluorophenyl)-1-(2-(pyridin-3-yl)ethyl)-2,5,6,7-tetrahydro-3H-pyrrolo[1,2-c]imidazole-3-thione]	109.1 % of control	72.1 % of control	–
Cn1c(CCC(N)=O)c2n(c1=S)C[C@H](c1c(F)ccc(Cl)c1F)C2 [Example 262, (S)-3-(6-(3-chloro-2,6-difluorophenyl)-2-methyl-3-thioxo-2,5,6,7-tetrahydro-3H-pyrrolo[1,2-c]imidazol-1-yl)propanamide]	82.6 % of control	70.1 % of control	–
Cn1c(CC(N)=O)c2n(c1=S)C[C@@]1(c3cc(Cl)ccc3F)C[C@@H]21 [Example 282, 2-((5aS,6aR)-5a-(5-chloro-2-fluorophenyl)-2-methyl-3-thioxo-2,3,5,5a,6,6a-hexahydrocyclopropa[3,4]pyrrolo[1,2-c]imidazol-1-yl)acetamide]	99.6 % of control	75.4 % of control	–

Now from value to compound:

Plasma (0.01 μM), activity in % of control	Plasma (0.1 μM), activity in % of control	Plasma (1 μM), activity in % of control	SMILES
62.7 % of control	6.1 % of control	–	Cn1c(CC(=O)NC2COC2)c2n(c1=S)C[C@@]1(c3cc(Br)ccc3F)C[C@@H]21 [Example 437, 2-((5aS,6aR)-5a-(5-bromo-2-fluorophenyl)-2-methyl-3-thioxo-2,3,5,5a,6,6a-hexahydrocyclopropa[3,4]pyrrolo[1,2-c]imidazol-1-yl)-N-(oxetan-3-yl)acetamide]
45.4 % of control	4.3 % of control	–	Cn1c(CC(=O)NC2CCOCC2)c2n(c1=S)C[C@H](c1c(F)ccc(Cl)c1F)C2 [Example 367, (S)-2-(6-(3-chloro-2,6-difluorophenyl)-2-methyl-3-thioxo-2,5,6,7-tetrahydro-3H-pyrrolo[1,2-c]imidazol-1-yl)-N-(tetrahydro-2H-pyran-4-yl)acetamide]
89.5 % of control	20.8 % of control	–	O=C(Cc1[nH]c(=S)n2c1C[C@@H](c1c(F)ccc(Cl)c1F)C2)N1CCOCC1 [Example 363, (S)-2-(6-(3-chloro-2,6-difluorophenyl)-3-thioxo-2,5,6,7-tetrahydro-3H-pyrrolo[1,2-c]imidazol-1-yl)-1-morpholinoethan-1-one]
49.6 % of control	12.8 % of control	–	CN(C)C(=O)C1CCN(C(=O)Cc2c3n(c(=S)n2C)C[C@H](c2c(F)ccc(Br)c2F)C3)CC1 [Example 452, (S)-1-(2-(6-(3-bromo-2,6-difluorophenyl)-2-methyl-3-thioxo-2,5,6,7-tetrahydro-3H-pyrrolo[1,2-c]imidazol-1-yl)acetyl)-N,N-dimethylpiperidine-4-carboxamide]
42.1 % of control	7.3 % of control	–	CN1CC(NC(=O)Cc2c3n(c(=S)n2C)C[C@H](c2c(F)ccc(Br)c2F)C3)CCC1=O (stereo partly drawn) [Example 457, 2-((S)-6-(3-bromo-2,6-difluorophenyl)-2-methyl-3-thioxo-2,5,6,7-tetrahydro-3H-pyrrolo[1,2-c]imidazol-1-yl)-N-(1-methyl-6-oxopiperidin-3-yl)acetamide]
65.6 % of control	13.5 % of control	–	Cn1c(CC(=O)N[C@H]2CCOC2)c2n(c1=S)C[C@H](c1c(F)ccc(Br)c1F)C2 [Example 459, 2-((S)-6-(3-bromo-2,6-difluorophenyl)-2-methyl-3-thioxo-2,5,6,7-tetrahydro-3H-pyrrolo[1,2-c]imidazol-1-yl)-N—((S)-tetrahydrofuran-3-yl)acetamide]
